Laboratory results reported in paper PMC2685384, “Binding characteristics of the ovine membrane progesterone receptor alpha and expression of the receptor during the estrous cycle” (Reproductive Biology and Endocrinology : RB&E, 2009).
Where two headings read alike, the source gives them in different places.

Experiments:
[1] = target: T1, ovine membrane progesterone receptor alpha (mPRα) (Ovis aries, UniProt A0ACI6Q1G6); experiment: radioligand competition against 3H-progesterone on mPRα-CHO membranes; assay type: binding
T1 construct: gene PAQR7; ovine mPRα expressed in CHO cells; digitonin-treated crude membrane fractions
T1 sequence (A0ACI6Q1G6 1-350): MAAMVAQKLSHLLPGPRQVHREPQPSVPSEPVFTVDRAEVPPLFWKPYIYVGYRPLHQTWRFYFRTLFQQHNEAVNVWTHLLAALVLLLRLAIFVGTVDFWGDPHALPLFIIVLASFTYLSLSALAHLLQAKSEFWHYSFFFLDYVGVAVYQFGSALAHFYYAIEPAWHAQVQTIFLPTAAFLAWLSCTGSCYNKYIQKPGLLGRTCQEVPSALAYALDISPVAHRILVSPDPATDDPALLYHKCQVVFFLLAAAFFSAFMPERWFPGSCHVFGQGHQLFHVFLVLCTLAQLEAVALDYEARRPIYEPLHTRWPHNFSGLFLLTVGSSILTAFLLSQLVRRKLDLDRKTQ

[2] = target: T1, ovine membrane progesterone receptor alpha (mPRα); experiment: 3H-progesterone saturation binding on membranes of stable mPRα-CHO cells (also competition, IC50 =[…])

SMILES: CC(=O)[C@@]1(O)CC[C@H]2[C@@H]3CCC4=CC(=O)CC[C@]4(C)[C@H]3CC[C@@]21C [17-OH-P4, 17α-hydroxyprogesterone]
- IC50 ([1]; read-out: IC50): 0.735 µM

SMILES: C[C@H](O)[C@H]1CC[C@H]2[C@@H]3CCC4=CC(=O)CC[C@]4(C)[C@H]3CC[C@]12C [20-OH-P4, 20α-hydroxyprogesterone]
- IC50 [1]: 0.298 µM

SMILES: CC(=O)[C@H]1CC[C@H]2[C@@H]3CCC4=CC(=O)CC[C@]4(C)[C@H]3CC[C@]12C [P4, progesterone]
- Kd [2]: 0.122 µM
